The subject of experiment [1] is A375 cells. Kind of experiment: Growth inhibition assay (CellTiter-Glo), A375. In kind it is cell-based. Particulars: Homo sapiens. The protocol:
Growth inhibition assay: Cells were plated into a 96-well plate at a density of 3000 cells per well and allowed to adhere overnight. Compounds were dissolved in DMSO, diluted 3-fold to create an 8-point titration and added to cells. After a 72-hour incubation, cell viability was examined using CellTiter-Glo® (Promega).
In order to determine the effects of Formula I on proliferation, a growth assay was established using melanoma cells (A375 and COLO829) and colorectal carcinoma cells (COLO205, HT-29) which each express the BRAFV600E mutation. To show selectivity over wild-type BRAF, several BRAF wild-type cell lines (K562, NOMO-1, MV-4-11 and ML-2) were also examined in the growth assay. The growth assay implemented the Promega CellTiter-Glo Luminescent Cell viability assay, which gives a luminescent readout that is proportional to the amount of ATP present in a cell sample. As ATP levels directly correlate with the number of viable cells, the luminescent signal can be used to determine the potency of Formula I to block the proliferation of the cell lines of interest.
1. 3,000 cells were plated in each well for cell lines A375, COLO205, COLO829, HT-29, and SK-MEL-3. 25,000 cells were plated in each well for cell lines K562, ML-2, MV-4-11, and
NOMO-1 of a 96-well tissue-culture-treated plate (Corning #3610) in a 50 μL volume. Cells were incubated overnight at 37° C.
2. Each test compound was plated as an 8-point titration, using 1:3 dilutions in DMSO. The maximum concentration was about 5 mM. Dilute DMSO and test compound of Formula I 1:250 in growth media.
3. 50 μL of the diluted compound was transferred into 50 μL cells, for a 500-fold final compound dilution (maximum concentration is typically 10 μM and DMSO concentration is 0.2%). The cells were incubated with DMSO/compound for 3 days at 37° C. in 5% CO2.
4. Cell Titer-Glo Luminescent Assay Reagent was brought to room temperature and reconstituted as directed in the product manual. The cell cultures were also brought to room temperature for about 20-30 minutes. […] Luminescence was measured on a Tecan Safire plate reader. […]

For experiment [2], the system named is pERK in A375 cells (BRAF^V600E, homozygous). Put plainly: Phospho-ERK AlphaScreen assay, pERK inhibition in A375. Type of experiment: cell-based. Particulars: Homo sapiens, A-375, 1 h, read-out: pERK inhibition IC50 A375. Here is the method:
(§1) Phospho-ERK AlphaScreen® assay: The degree of ERK phosphorylation was determined using an AlphaScreen® assay where an increase in ERK1/2 phosphorylation at Thr202/Tyr204 brought the donor and acceptor AlphaScreen® beads into close proximity, generating a signal for quantification. To determine the effects of compound treatment on phosphorylation of ERK1/2, cells were plated in a 96-well plate and treated with an 8-point titration of compound for one hour at 37° C. before lysis. To detect pERK, cell lysates were incubated with streptavidin-coated AlphaScreen® donor beads, anti-mouse IgG AlphaScreen® acceptor beads, a biotinylated anti-ERK1/2 rabbit antibody, and a mouse antibody that recognizes ERK1/2 only when it is phosphorylated on Thr202 and Tyr204. The biotinylated ERK1/2 antibody binds to both the streptavidin-coated AlphaScreen® donor beads and to ERK1/2 (regardless of its phosphorylation state), and the phospho-ERK1/2 antibody binds to the acceptor beads and to ERK1/2 that is phosphorylated at Thr202/Tyr204. An increase in ERK1/2 phosphorylation at Thr202/Tyr204 brings the donor and acceptor AlphaScreen® beads into close proximity, generating a signal that can be quantified on an EnVision reader (Perkin Elmer).
(§2) Using AlphaScreen® technology, the ability of Formula I to affect the phosphorylation of ERK and MEK in the cells was measured quantitatively. Following treatment with compound, the cells were lysed, and a sample of the lysate was transferred to an assay plate. The lysate was mixed with antibodies directed against total ERK/MEK, antibodies that recognize specific phosphorylation sites on ERK/MEK, AlphaScreen® anti-mouse IgG Acceptor beads, and Streptavidin Donor beads. Upon excitation of the donor beads with laser light at 680 nm, singlet oxygen was produced. This singlet oxygen was rapidly quenched, unless the AlphaScreen® Acceptor beads were in close proximity, in which case a proximity signal can be measured at 580 nm. In the presence of phosphorylated ERK/MEK, there is a very strong proximity signal.
(§3) 1. One day before the assay, 50,000 cells were plated in each well of a 96-well tissue-culture-treated plate (Corning #3610) in a 50 μL volume. Cells were incubated at 37° C. overnight.
(§4) 2. Compounds were diluted in DMSO to 500× final concentration. Each compound was plated as an 8-point titration, using 1:3 dilutions in DMSO. The maximum concentration was about 5 mM.
(§5) 3. 1 μl of compound was added to each well of a 96-well polypropylene plate (Corning #3363). For A375, COLO829, SK-MEL-3, HCT116, and HT-29, the high control was DMSO, and the low control was 10 μM PLX4720 (CAS No. 918505-84-7). For B9 and IPC-298, the high control was 3.33 μM PLX4720, and the low control was DMSO. 4. 249 μL growth media was added to compounds, diluting them 250-fold. 5. […] The compound was incubated with the cells at 37° C. for one hour. 6. The media was aspirated, and the cells were lysed in 50 μL of ice-cold 1× Cell Lysis buffer. The plates were incubated on ice for 5 minutes to allow complete lysis of the cells. 7. A mixture of biotinylated donor antibody, acceptor antibody, and anti-mouse IgG AlphaScreen® acceptor beads in 1× AlphaLISA immunoassay buffer was prepared. 8. 5 μL of lysate was transferred to a 384-well assay plate (Perkin Elmer #6005359). 5 μL of the antibody and acceptor bead mixture was added. The plates were spinned.

Experiment [3] relates to pERK in COLO829 cells (BRAF^V600E, heterozygous). Kind of experiment: Phospho-ERK AlphaScreen assay, pERK inhibition in COLO829. Particulars: Homo sapiens, COLO-829, 1 h, read-out: pERK inhibition IC50 COLO829. Type of experiment: cell-based. The protocol: as §1, §2, §3, §4, §5
The test system of experiment [4] is pERK in B9 cells (HRAS^Q61L). Kind of experiment: Phospho-ERK AlphaScreen assay, pERK activation in B9. Type of experiment: cell-based, murine. Particulars: Mus musculus. The protocol: as §1, §2, §3, §4, §5
Experiment [5] concerns pERK in HCT116 cells (KRAS^G13D). Put plainly: Phospho-ERK AlphaScreen assay, pERK activation in HCT116. The conditions noted are these: Homo sapiens, HCT-116. Type of experiment: cell-based. Here is the method: as §1, §2, §3, §4, §5
Where [6] appears, read: B9, HRAS^Q61L, concentration increasing pERK to 50% compared to positive control 10 μM PLX4720, read-out: pERK activation EC50 B9.
Setting [7] is: read-out: pERK activation Mean EC50, B9.
The mark [8] stands for this setting: HCT116, KRAS^G13D, concentration increasing pERK to 50% compared to positive control 10 μM PLX4720, read-out: pERK activation EC50 HCT116.
Setting [9] is: read-out: pERK activation Mean EC50, HCT116.
The mark [10] stands for this setting: A-375, 72-hour incubation, read-out: In vitro growth inhibition IC50, A375.
The mark [11] stands for this setting: A375, BRAF^V600E homozygous, one hour treatment.
[12] abbreviates: COLO829, BRAF^V600E heterozygous, one hour treatment.

Here are results for three compounds from US9814714B2, “Kinase modulation, and indications therefor” (Plexxikon Inc., priority 2015, dated 2017).

Read-outs that look alike come from different tables or passages of the source.

Consider `O=C(c1c(F)ccc(NS(=O)(=O)N2CC[C@@H](F)C2)c1F)c1c[nH]c2ncc(-c3cnc(C4CC4)nc3)cc12` [Formula I, (3R)—N-[3-[5-(2-cyclopropylpyrimidin-5-yl)-1H-pyrrolo[2,3-b]pyridine-3-carbonyl]-2,4-difluorophenyl]-3-fluoropyrrolidine-1-sulfonamide], for which the IC50 in experiment [1] (A-375, 72 h, Table 4, melanoma, BRAF V600E, RAS WT, 3 days, read-out: Growth IC50 A375) was 50 nM; in experiment [2], 16 nM; in experiment [3] it was 18 nM. For the same compound, the EC50 in experiment [4] (setting [6]) was greater than 200000 nM; in experiment [4] (setting [7]), no less than 10000 nM; in experiment [5] (setting [8]), greater than 200000 nM; in experiment [5] (setting [9]) it was 10000 nM.
`CCN(C)S(=O)(=O)Nc1ccc(F)c(C(=O)c2c[nH]c3ncc(-c4cnc(C5CC5)nc4)cc23)c1F` [Formula II, 5-(2-cyclopropylpyrimidin-5-yl)-3-[3-[[ethyl(methyl)sulfamoyl]amino]-2,6-difluoro-benzoyl]-1H-pyrrolo[2,3-b]pyridine]: the IC50 is 170 nM in experiment [1] (setting [10]), 3.5 nM in experiment [2] (setting [11]) and 2.1 nM in experiment [3] (setting [12]). The EC50 in experiment [4] (setting [6]) and in experiment [5] (setting [8]) was greater than 200000 nM in each case.
Consider `CCCS(=O)(=O)Nc1ccc(F)c(C(=O)c2c[nH]c3ncc(-c4ccc(Cl)cc4)cc23)c1F` [Vemurafenib, vemurafenib, reference compound], for which the values for the half-maximal inhibitory concentration (IC50) in experiment [1] (setting [10]), in experiment [2] (setting [11]) and in experiment [3] (setting [12]) were 330 nM, 32 nM and 41 nM, respectively. Also, the EC50 in experiment [4] (setting [6]) was 360 nM; in experiment [4] (setting [7]), 560 nM; in experiment [5] (setting [8]), 340 nM; in experiment [5] (setting [9]) it was 286 nM.
